Results published in US4994448A, “Condensed quinolinium and isoquinolinium derivatives” (Egis Gyogyszergyar, priority 1987, dated 1991).
Like-named read-outs stand apart in the source and are kept apart here.

Experiments:
[1] = system: gastrointestinal peristalsis; assay: Antiperistaltic effect on mice (gastrointestinal peristalsis, carbon suspension, method of Stickney et al.); format: in vivo, mice (white, male and female); conditions: for ED50: Mus musculus, read-out: Antiperistaltic effect ED50; for Therapeutical index (antiperistaltic effect): mouse, in vivo
Protocol: The […] effect is tested according to the method of […] et al. on white male and female mice weighing 20-25 g. […] The groups consist of 10 mice for each dose. The animals of the control group are treated at the same time under identical conditions with a vehicle. Twenty minutes after the administration of the carbon suspension the mice are sacrificed. The total length of the intestines and that of the intestines filled with carbon is measured.

Acute toxicity on mice = conditions: mouse, in vivo, po
Protocol: White mice belonging to the CFLP strain (body weight 18-22 g; both male and female) are used, 10 animals for each dose. The test compound is administered orally in a volumen of 20 ml/kg. After treatment the animals are observed for a period of 7 days. The animals are kept in a plastic cage, at room temperature. The animals get tap water and standard mouse fodder ad libitum.

Hexobarbital narcosis = Hexobarbital narcosis on mice; format: in vivo; conditions: po; for ED50: Mus musculus, read-out: Hexobarbital narcosis ED50; for Therapeutical index (Hexobarbital narcosis): mouse, in vivo
Protocol: Groups consisting of 6 mice are used for each dose. The animals are treated orally with the test compound (the control group receives a vehicle), whereby sleeping is induced 1 hour later by administering a 40 mg./kg. i.v. dose of Hexobarbital both to the test and control groups.
Animals which have a sleeping time more than 2.5 times longer than that of the control group are considered to show a positive reaction. ED50 values are calculated from the thus-transofrmed data.

writhing (acetic acid) = assay: Analgesic effect, acetic acid writhing test on mice; format: in vivo; conditions: for ED50: Mus musculus, oral, 60 min pre-treatment, 0.75% acetic acid i.p.; for Therapeutical index (writhing test): mouse, in vivo, po
Protocol: Method: acetic acid "writhing effect" on mice
To mice weighing 20-25 g. a 0.75% acetic acid solution is administered intraperitoneally in a volume of 20 ml./kg. According to the method of Neubold the characteristic writhing reactions are counted for each animal between the 5th and 10th minute and the total writhing number obtained for this 5 minutes' period is expressed as the percentage of the control group. The test compound is administered orally, the test is carried out by using a pre-treatment period of 60 minutes and 10 animals are used for each dose.

Tetrabenazine ptosis = assay: Tetrabenazine antagonism on mice (ptosis); format: in vivo; conditions: for ED50: Mus musculus, oral, 30 min before Tetrabenazine 50 mg./kg. i.p.
Protocol: The test is carried out by the method of Hoffmeister et al. adapted to mice. For each does groups of 10 animals are used. The mice of the test groups are treated orally with the test compound while the controld animals receive the corresponding vehicle p.o. After 30 minutes a 50 mg./kg. i.p. dose of Tetrabenazine is administered. The animals with closed eye-lids are counted after 30, 60, 90 and 120 minutes, respectively, in each group. The average ptosis is calculated on the basis of all measurements in each group and expressed as the percentage of the deviation (ptosis) from the control group.

Reserpin ptosis = Reserpin ptosis antagonism on mice; format: in vivo; conditions: for ED50: Mus musculus, sc, 1 h, compound given 60 min after reserpine 6 mg./kg. s.c.
Protocol: The average ptosis is calculated on the basis of all measurements in each group and expressed as the percentage of the deviation (ptosis) from the control group. Groups consisting of 10 mice are used for each does. The animals are treated with a 6 mg./kg. s.c. dose of reserpine, the test compound is administered after 60 minutes. The control animals receive a vehicle. The animals with closed eye-lids are counted in each group after 60 and 120 minutes. The evaluation is carried out as disclosed in the ptosis test No. 3.

[2] = 7 days observation, Litchfield-Wilcoxon
[3] = 60 min before 10% carbon suspension

In the case of `COc1ccc(Cc2nccc3cc(OC)c(OC)cc23)cc1OC` [Papaverin, reference compound], the ED50 [1] is reported as greater than 280 mg/kg and the “inhibition (antiperistaltic effect)” value ([1]; printed beside ED50 above 280 mg./kg.) is reported as 36.1%.

`Cc1n[n+]2c(ccc3ccccc32)nc1NCCO` [Example 24, 2-Methyl-3(2-hydroxyethylamino)as-triazino[3,2-a]quinolinium ethanesulfonate] showed an LD50 at 168 h (Acute toxicity on mice; [2]) of 130 mg/kg.

`Cc1n[n+]2ccc3ccccc3c2nc1N1CCOCC1` [Example 34, 2-Morpholino-3-methyl-as-triazino[3,2-a]isoquinolinium ethanesulfonate] gave an LD50 at 168 h (Acute toxicity on mice; [2]) of 1200 mg/kg.

In the case of `OCCNc1nc2ccc3ccccc3[n+]2nc1-c1ccccc1` [Example 25, 3-(2-Hydroxyethylamino)-2-phenyl-as-triazino[3,2-a]quinolinium ethanesulfonate], the LD50 at 168 h (Acute toxicity on mice; [2]) is reported as 500 mg/kg.

In the case of `CCCC(C)(COC(N)=O)COC(N)=O` [Meprobamate, reference compound], the ED50 (Hexobarbital narcosis) is reported as 260 mg/kg and the “Therapeutical index (Hexobarbital narcosis)” value (Hexobarbital narcosis) is reported as 4.2.

With `OCCNc1nc2c3ccccc3cc[n+]2nc1-c1ccccc1` [Example 37, 2-(2-Hydroxyethylamino)-3-phenyl-as-triazino[3,2-a]isoquinolinium ethanesulfonate] the LD50 at 168 h (Acute toxicity on mice; [2]) was 750 mg/kg.

In the case of `Cc1n[n+]2c(ccc3ccccc32)[nH]c1=O` [Example 21, 2-Methyl-3(4H)-oxo-as-triazino[3,2-a]quinoline-11-ium ethanesulfonate], the LD50 at 168 h (Acute toxicity on mice; [2]) is reported as 700 mg/kg.

`Cc1n[n+]2ccc3ccccc3c2nc1NCCCN(C)C` [Example 5, 2-(3-Dimethylaminopropylamino)-3-methyl-as-triazino[3,2-a]isoquinolinium ethanesulfonate] gave an LD50 at 168 h (Acute toxicity on mice; [2]) of 2000 mg/kg.

With `CN(C)CCCNc1nc2c3ccccc3cc[n+]2nc1-c1ccccc1` [Example 6, 2-(3-Dimethylaminopropylamino)-3-phenyl-as-triazino[3,2-a]isoquinolinium ethanesulfonate] the ED50 (writhing (acetic acid)) was 120 mg/kg, the “Therapeutical index (writhing test)” value (writhing (acetic acid)) was 7.1 and the LD50 at 168 h (Acute toxicity on mice) was 850 mg/kg. For the same molecule, the ED50 (Hexobarbital narcosis) was 35 mg/kg and the “Therapeutical index (Hexobarbital narcosis)” value (Hexobarbital narcosis) was 24.3.

With `OCCNc1cn[n+]2ccc3ccccc3c2n1` [Example 3, 2-(2-Hydroxyethylamino)-as-triazino[3,2-a]isoquinolinium ethanesulfonate] the ED50 (Tetrabenazine ptosis) was 50 mg/kg, the “Therapeutical index TI (Tetrabenazine ptosis antagonism)” value (Tetrabenazine ptosis) was 10.0 and the LD50 at 168 h (Acute toxicity on mice) was 500 mg/kg.

`Nc1nc2c3ccccc3cc[n+]2nc1-c1ccccc1` [Example 39, 2-Amino-3-phenyl-as-triazino[3,2-a]isoquinolinium ethanesulfonate] showed an LD50 at 168 h (Acute toxicity on mice; [2]) of 500 mg/kg.

With `Cc1n[n+]2ccc3ccccc3c2nc1N` [Example 38, 2-Amino-3-methyl-as-triazino[3,2-a]isoquinolinium ethanesulfonate] the ED50 (writhing (acetic acid)) was 65 mg/kg, the “Therapeutical index (writhing test)” value (writhing (acetic acid)) was 5.8 and the ED50 (Tetrabenazine ptosis) was 9.2 mg/kg. For the same molecule, the “Therapeutical index TI (Tetrabenazine ptosis antagonism)” value (Tetrabenazine ptosis) was 41.3, the LD50 at 168 h (Acute toxicity on mice) was 380 mg/kg and the ED50 (Hexobarbital narcosis) was 17 mg/kg. For the same molecule, the “Therapeutical index (Hexobarbital narcosis)” value (Hexobarbital narcosis) was 22.4.

With `Cc1n[n+]2c3ccccc3ccc2n(C)c1=O` [Example 17, 2,4-Dimethyl-3(4H)-oxo-as-triazino[3,2-a]isoquinoline-11-ium ethanesulfonate] the ED50 (Reserpin ptosis) was 40 mg/kg, the “Therapeutical index TI (Reserpin ptosis antagonism)” value (Reserpin ptosis) was 25.0 and the LD50 at 168 h (Acute toxicity on mice) was 1000 mg/kg.

In the case of `CC1=N[n+]2ccc3ccccc3c2NC1(C)O` (stereo not shown) [Example 1, 2,3-Dimethyl-2-hydroxy-1,2-dihydro-as-triazino[3,2-a]isoquinolinium ethanesulfonate], the ED50 (writhing (acetic acid)) is reported as 60 mg/kg, the “Therapeutical index (writhing test)” value (writhing (acetic acid)) is reported as 7.3 and the LD50 at 168 h (Acute toxicity on mice) is reported as 440 mg/kg.

In the case of `c1ccc(CNc2nc3c4ccccc4cc[n+]3nc2-c2ccccc2)cc1` [Example 8, 2-Benzylamino-3-phenyl-as-triazino[3,2-a]isoquinolinium ethanesulfonate], the ED50 (Reserpin ptosis) is reported as 31 mg/kg, the “Therapeutical index TI (Reserpin ptosis antagonism)” value (Reserpin ptosis) is reported as 11.0 and the LD50 at 168 h (Acute toxicity on mice) is reported as 340 mg/kg.

For `OC1C=N[n+]2ccc3ccccc3c2N1` (stereo not shown) [Example 16, 2-Hydroxy-1,2-dihydro-as-triazino[3,2-a]isoquinolinium ethanesulfonate], the LD50 at 168 h (Acute toxicity on mice; [2]) was 650 mg/kg.

In the case of `O=c1nc2c3ccccc3ccn2nc1-c1ccccc1` [Example 11, 3-Phenyl-as-triazino[3,2-a]isoquinoline-2(5H)-one], the ED50 (Reserpin ptosis) is reported as 33 mg/kg, the “Therapeutical index TI (Reserpin ptosis antagonism)” value (Reserpin ptosis) is reported as 60.6 and the LD50 at 168 h (Acute toxicity on mice) is reported as 2000 mg/kg. For the same molecule, the ED50 [1, 3] was roughly 220 mg/kg and the “Therapeutical index (antiperistaltic effect)” value [1] was 9.1.

In the case of `O=c1cn[n+]2c(ccc3ccccc32)[nH]1` [Example 26, 3(4H)-Oxo-as-triazino[3,2-a]quinoline-11ium ethanesulfonate], the LD50 at 168 h (Acute toxicity on mice; [2]) is reported as 450 mg/kg.

With `CC(=O)Nc1ccc(O)cc1` [Paracetamol, reference compound] the ED50 (writhing (acetic acid)) was 180 mg/kg.

Work on `c1ccc2c(c1)cc[n+]1ncc(N3CCOCC3)nc21` [Example 2, 2-Morpholino-as-triazino[3,2-a]isoquinolinium ethanesulfonate] yielded an LD50 at 168 h (Acute toxicity on mice; [2]) of 450 mg/kg.

For `O=c1[nH]c2ccc3ccccc3[n+]2nc1-c1ccccc1` [Example 27, 2-Phenyl-3(4H)-oxo-as-triazino[3,2-a]quinoline-11ium ethanesulfonate], the ED50 (writhing (acetic acid)) was 23.8 mg/kg and the “Therapeutical index (writhing test)” value (writhing (acetic acid)) was 42.0.

With `CN(C)CCC=C1c2ccccc2CCc2ccccc21` [Amitriptylin, reference compound] the ED50 (Reserpin ptosis) was 65 mg/kg, the “Therapeutical index TI (Reserpin ptosis antagonism)” value (Reserpin ptosis) was 3.5 and the ED50 (Tetrabenazine ptosis) was 12 mg/kg. The “Therapeutical index TI (Tetrabenazine ptosis antagonism)” value (Tetrabenazine ptosis) was 18.7.

With `Cc1n[n+]2ccc3ccccc3c2nc1NCCO` [Example 36, 2-(2-Hydroxyethylamino)-3-methyl-as-triazino[3,2-a]isoquinolinium ethanesulfonate] the ED50 (Tetrabenazine ptosis) was 20 mg/kg, the “Therapeutical index TI (Tetrabenazine ptosis antagonism)” value (Tetrabenazine ptosis) was 70.0 and the LD50 at 168 h (Acute toxicity on mice) was 1400 mg/kg.

For `Cc1n[n+]2ccc3ccccc3c2nc1NCc1ccccc1` [Example 40, 2-Benzylamino-3-methyl-as-triazino[3,2-a]isoquinolinium ethanesulfonate], the LD50 at 168 h (Acute toxicity on mice) was 90 mg/kg, the ED50 [1, 3] was 6.5 mg/kg and the “Therapeutical index (antiperistaltic effect)” value [1] was 13.85.

With `Cc1n[n+]2ccc3ccccc3c2[nH]c1=O` [Example 9, 3-Methyl-2(1H)-oxo-as-triazino[3,2-a]isoquinolinium-5-ium-ethanesulfonate] the ED50 (writhing (acetic acid)) was 107 mg/kg, the “Therapeutical index (writhing test)” value (writhing (acetic acid)) was 8.4 and the LD50 at 168 h (Acute toxicity on mice) was 900 mg/kg. The ED50 (Hexobarbital narcosis) was 56 mg/kg and the “Therapeutical index (Hexobarbital narcosis)” value (Hexobarbital narcosis) was 16.1.

For `Cn1c(=O)c(-c2ccccc2)n[n+]2c3ccccc3ccc12` [Example 18, 2-Phenyl-4-methyl-3(4H)-oxo-as-triazino[3,2-a]quinoline-11-ium ethanesulfonate], the ED50 (Reserpin ptosis) was 40 mg/kg, the “Therapeutical index TI (Reserpin ptosis antagonism)” value (Reserpin ptosis) was 50.0 and the LD50 at 168 h (Acute toxicity on mice) was 2000 mg/kg.
